Assay results from a melting point compilation (Tetko et al.; mined from patent text by program, amines drawn as free bases though some values may be those of a salt).

First: C=CCC(C)(CC=C)C(=O)O[C@H]1C[C@H](O)C=C2C=C[C@H](C)[C@H](CC[C@@H]3C[C@@H](O)CC(=O)O3)[C@H]21
Second: CC(=O)NC[C@H]1CN(c2ccc3c(c2)CCC(C)N3)C(=O)O1 (stereo partly drawn)
The melting point of the first is lower: 115 to 116 °C for the first, 158 to 159 °C for the second.

First: Cc1ccccc1NC(=O)C1CCc2nc[nH]c2C1 (stereo not drawn)
Second: O=C1CCC(N2C(=O)c3cccc(NC(=O)c4cccc([N+](=O)[O-])c4)c3C2=O)C(=O)N1 (stereo not drawn)
The melting point of the first is lower: 100 to 105 °C for the first, 245 to 247 °C for the second.

Compared with `CC(=O)NC(Cc1ccccc1)C(=O)Nc1c(C(C)C)cccc1C(C)C` (stereo not drawn), `CC(C)C[C@H](NC(=O)c1ccccc1Cl)C(=O)N[C@@H](C(C)C)[C@@H](O)c1c(-c2ccccc2)c1=O` is lower in melting point: 228 to 229 °C for the first, 99 to 104 °C for the second.

Compared with `Cc1nnc2nc(-c3ccccc3)c3cc(Cl)ccc3n12`, `O=c1n(-c2ccccc2)nc2c3ccccc3nc(Cl)n12` is lower in melting point: 335 to 337 °C for the first, 167 to 168 °C for the second.

Compared with `CC(=O)C1CCC2C3CCC4CC(F)CCC4(C)C3CCC12C` (stereo not drawn), `[N-]=[N+]=C(S(=O)(=O)C1CCCCC1)S(=O)(=O)C1CCCCC1` is lower in melting point: 154 to 155 °C for the first, 130 to 131 °C for the second.

Compared with `CCCCC(=O)Nc1c(N)ccnc1Cl`, `Nc1ccc(CCC(=O)Nc2cnc3ccccc3c2)cc1[N+](=O)[O-]` is higher in melting point: 163 °C for the first, 220 °C for the second.

Compared with `O=C(Nc1ccc(C(F)(F)F)cc1)Nc1cccc(C(=O)N2CCOCC2)n1`, `Nc1ccccc1C(=O)Nc1ccc(C(F)(F)F)cc1` is lower in melting point: 208 to 210 °C for the first, 160 to 161 °C for the second.

First: CCC(O)C#Cc1ncn2c1CN(C)C(=O)c1c(Cl)cccc1-2 (stereo not drawn)
Second: Cc1ccc(C)n1-c1ccc([C@@H](O)CN2C(=O)c3ccccc3C2=O)cn1
The melting point of the first is higher: 178 °C for the first, 167 to 170 °C for the second.

First: CCOC(=O)C1CCCCN1C(=O)/C=C/c1ccc(Sc2ccc3c(c2)OCCO3)c([N+](=O)[O-])c1 (stereo not drawn)
Second: Cc1c(C(=O)Nc2ccc(N3CCC(N4CCOCC4)CC3)c(C(N)=O)c2)cnn1-c1ccc(Cl)cc1
The melting point of the first is lower: 74 to 75 °C for the first, 270 °C for the second.

First: O=C1NCCc2c1c1cccc3c1n2CCC3
Second: O=c1[nH]c(CCCN2CCCC2)cc2ccccc12
The melting point of the first is higher: 254 to 256 °C for the first, 117 to 119 °C for the second.

First: COc1cc2ncnc(N3CCCCc4ccc(Br)cc43)c2cc1OC
Second: COc1ccc2c3c(c(=O)oc2c1OC)CN(Cc1ccccc1)CC3
The melting point of the first is higher: 209 to 217 °C for the first, 138 to 140 °C for the second.

First: COc1ccc(S(=O)(=O)Nc2ccccc2C=Cc2cccnc2)cc1
Second: Cc1ccc(S(=O)(=O)C(=CNc2ccc(Br)cn2)C(=O)c2ccccc2)cc1
The melting point of the first is lower: 131 to 132 °C for the first, 205 °C for the second.

First: CN(C)c1ccc(N(c2ccccc2)C2(c3ccc(N(C)C)cc3)OC(=O)c3cc(N(C)C)ccc32)cc1 (stereo not drawn)
Second: O=C(O)c1cc(-n2c(-c3ccccc3)cc3c2CCc2ccccc2-3)ccc1S
The melting point of the first is lower: 163 to 164 °C for the first, 260 to 262 °C for the second.

Compared with `COc1cc2cc(C(N)=O)sc2cc1OC`, `CCS(=O)(=O)c1cc(OC)c(OC)c(C(=O)O)c1` is lower in melting point: 211 to 213 °C for the first, 138 to 139 °C for the second.

Compared with `COc1ccc2ccc(C(=O)CNC(=O)Cc3ccc4ccccc4c3)cc2c1`, `COC(=O)CCC(=O)Nc1cccc(OCc2cc3ccccc3o2)c1` is lower in melting point: 169 to 173 °C for the first, 112 to 113 °C for the second.

First: CC(C)(C)OC(=O)N1CCN(C(=O)c2nc3c(N)nc(N)nc3nc2N)CC1
Second: Cc1nc2c(N)nc3c(c2n1CC(C)C)CCCC3
The melting point of the first is higher: 245 to 250 °C for the first, 170 to 172 °C for the second.

First: O=C(CNC1CCCCC1)Nc1ccc(C(=O)N2CCCCc3ccccc32)cc1
Second: O=C(c1ccc(F)cc1)C1CCN(CCn2c(=O)[nH]c3ccccc32)CC1
The melting point of the first is lower: 139 to 142 °C for the first, 164 °C for the second.

Compared with `CN1CCC(c2nc3ccccc3[nH]2)C1` (stereo not drawn), `Clc1c2c(nc3ccccc13)CCCNC2` is lower in melting point: 189 to 193 °C for the first, 127 °C for the second.

First: O=C(Nc1c[nH]nc1C(=O)NCCc1cccnc1)c1ccccn1
Second: O=C(Nc1c[nH]nc1C(=O)NCCC(F)(F)F)c1ccccn1
The melting point of the first is higher: 267 to 268 °C for the first, 241 to 243 °C for the second.

First: Cn1c2ccccc2c2sccc(=O)c21
Second: Cc1cn(NC(=O)c2ccccc2C(=O)O)c2ccccc12
The melting point of the first is lower: 113 to 114 °C for the first, 191 to 193 °C for the second.

First: COc1ccc(-n2nc(OC(C)C)cc2-c2ccc(OCCO)cc2)cn1
Second: CC(Oc1ccc(N(C)c2cc3ccc(Cl)cc3c(Cl)n2)cc1)C(=O)O (stereo not drawn)
The melting point of the first is lower: 74 to 75 °C for the first, 136 °C for the second.

First: O=C1OC(CCI)C(O)=C1OCc1ccccc1 (stereo not drawn)
Second: O=C(O)c1cncc(OCc2ccccc2)n1
The melting point of the first is lower: 101 to 104 °C for the first, 160 to 162 °C for the second.

First: CCCCN(c1cccc(-c2ccnc3c([N+](=O)[O-])cnn23)c1)S(=O)(=O)c1ccc(OC)cc1
Second: O=C(CCc1ccncc1)Nc1cccc(-c2ccnc3c(C(=O)c4cccs4)cnn23)c1
The melting point of the first is higher: 189 to 190 °C for the first, 176 to 181 °C for the second.

First: CC(C)Nc1cccnc1N1CCN(C(=O)c2ccc(C(=O)N(CCO)c3ccccc3)cc2)CC1
Second: CN1CCN(C(=O)c2ccc(-c3ccc4nnn(Cc5ccc6ncccc6c5)c4n3)cc2)CC1
The melting point of the first is lower: 71 to 72 °C for the first, 156 to 158 °C for the second.

First: O=c1c(-c2ccc(F)cc2)coc2c(O)c(O)ccc12
Second: COc1ccccc1-n1c(=O)[nH]c2c(C(N)=O)nc(-c3ccc(O)cc3)nc21
The melting point of the first is lower: 289 °C for the first, 362 to 363 °C for the second.

Compared with `Cc1cc(-c2ccc(Cl)cc2)cn2c(C(=O)O)cnc12`, `O=C(O)CCC(=NO)c1ccc(-c2ccc(Cl)c(Cl)c2)cc1` is lower in melting point: 228 °C for the first, 166 °C for the second.

Compared with `O=[N+]([O-])c1cc(CCO)c(NCCO)c([N+](=O)[O-])c1`, `O=[N+]([O-])c1cc(Cl)ccc1NCCO` is lower in melting point: 115 °C for the first, 98 to 100 °C for the second.

First: CCOC(=O)NC(=CC(=O)[C@H](Cc1ccccc1)N(Cc1ccccc1)Cc1ccccc1)Cc1ccccc1
Second: O=C1CC(COC(c2ccccc2)(c2ccccc2)c2ccccc2)=NC=C1OCc1ccccc1
The melting point of the first is lower: 91 to 93 °C for the first, 233 to 235 °C for the second.

First: CC(C)NC(=S)Nc1cccc(NC(=O)Nc2ccc(Cl)cc2)c1
Second: CC(=O)/C=C(\C)c1ccc(-c2ccccc2)c(Cl)c1
The melting point of the first is higher: 197 to 198 °C for the first, 66 to 67 °C for the second.

First: COc1ccc2c(c1OC)SCCC2C#N (stereo not drawn)
Second: N#CC1CCc2c([nH]c3ccc(Cl)cc23)C1 (stereo not drawn)
The melting point of the first is lower: 116 to 118 °C for the first, 181 to 182 °C for the second.

First: CCC1C(C)=NN=C(c2ccc(O)c(OC)c2)c2cc(OC)c(O)cc21 (stereo not drawn)
Second: CCOC(=O)C(C)OCc1cc2cc(Cl)ccc2n1S(=O)(=O)c1cc(OC)ccc1OC (stereo not drawn)
The melting point of the first is higher: 210 to 212 °C for the first, 118 to 120 °C for the second.

`COC(=O)C(=Cc1ccc2c(c1)CCO2)N=[N+]=[N-]` and `COC(=O)c1cc(OC(C)=O)c2cc(Br)ccc2c1C` cannot be ordered by melting point: 77 to 80 °C for the first, 78 °C for the second.

Compared with `CC(C)(C)c1cc(-n2ccc(=O)[nH]c2=O)cc(-c2ccc3cc(NS(C)(=O)=O)ccc3c2)c1Cl`, `CC1(Cc2ccc(Br)cc2)C(=O)N(c2cc(Cl)cc(Cl)c2)c2ccccc21` (stereo not drawn) is lower in melting point: > 280 °C for the first, 129 to 130 °C for the second.

First: CC1(c2cc(-c3cccc(C=C4SC(N5CCCC5)=NC4=O)c3)ccc2O)CCCCC1
Second: O=c1c2c(nc3ccc(Cl)cn13)C(=Cc1ccccc1Cl)CC2
The melting point of the first is higher: 278 to 280 °C for the first, 249 to 250 °C for the second.

First: CN1CCCC(O)(c2nccnc2Cl)C1 (stereo not drawn)
Second: N#Cc1cc(C(=O)NN2CCOCC2)ccc1OCC(=O)Nc1ccc(Cl)cn1
The melting point of the first is lower: 111 to 112 °C for the first, 165 to 167 °C for the second.

Compared with `O=C(O)CCc1cnoc1-c1cc(Cl)ccc1Cl`, `COc1ccc(C(=O)Nc2c(Cl)cncc2Cl)c2c1oc1ccc(NCC(=O)O)cc12` is higher in melting point: 103 to 104 °C for the first, > 260 °C for the second.

Compared with `O=c1ccc2cnc(Nc3ccccc3)nc2n1C1CCCC1`, `O=C(c1ccccc1)c1cc2ccncc2[nH]1` is higher in melting point: 188 to 192 °C for the first, 245 to 247 °C for the second.

First: CCOC(=O)C(=C1SC(=S)N(CC(=O)O)C1=O)c1csc(NC(C)=O)n1
Second: Cc1cc(OC(F)(F)F)ccc1NC(=O)c1cccc(I)c1C(=O)NC(C)CC(=O)N(C)C (stereo not drawn)
The melting point of the first is higher: 292 to 296 °C for the first, 104 °C for the second.

First: FC(F)(F)c1nc(-c2ccccc2)c(-c2ccccc2)c(N2CCN(c3ccccn3)CC2)n1
Second: O=c1oc(-c2ccccc2)cc(O)c1Sc1c(O)cc(-c2ccccc2)oc1=O
The melting point of the first is lower: 165 to 167 °C for the first, > 240 °C for the second.

First: Brc1ccc(C2(Cn3cncn3)OCCO2)cc1
Second: O=C(O)C=CC(=O)Nc1ccc2ncnc(Nc3cccc(Br)c3)c2c1
The melting point of the first is lower: 136 °C for the first, 224 to 225 °C for the second.

First: CC(=O)Nc1cc2c(c3c1OC(C)(C)C3)C(c1ccccc1)=NC(C)(C)C2
Second: O=C(O)CNC(=O)C1(CS)Cc2ccccc2C1
The melting point of the first is higher: 175 to 180 °C for the first, 137 to 143 °C for the second.

First: CC(=O)NC1CSc2ccccc2NC1=O (stereo not drawn)
Second: CCCOc1ccccc1-c1ccc(N)c(=O)[nH]1
The melting point of the first is higher: 283 to 286 °C for the first, 158 to 161 °C for the second.

Going from `O=c1c2c(Cc3ccccc3)n[nH]c2c2cccnc2n1-c1ccc(O)cc1` to `CC(=O)NC(c1ccc(Cl)cc1)(c1ccc2c(c1)c(-c1nc(-c3ccccc3)cs1)cc(=O)n2C)c1cncn1C` (stereo not drawn), the melting point falls from > 320 °C to 244 °C.

First: O=C(O)c1ccc(-c2nccs2)nc1
Second: COc1cc(CNC(=O)c2nc3scc(COCc4ccc(C(=O)O)cc4)c3c(=O)[nH]2)ccc1F
The melting point of the first is higher: > 300 °C for the first, 225 to 226 °C for the second.

First: CC(C)N(CCC(CCN(C(C)C)C(C)C)(C(N)=O)c1ccc(-c2ccccc2)cc1)C(C)C
Second: O=C(O)CCNc1ccccc1CNC(=O)C1Cc2ccccc2N1S(=O)(=O)c1ccc(-c2cccc(C(F)(F)F)c2)cc1 (stereo not drawn)
The melting point of the first is higher: 110 to 111 °C for the first, 94 °C for the second.

First: CS(=O)(=O)Nn1c(=O)[nH]c2cc(C(F)(F)F)c(Oc3cccnc3)cc2c1=O
Second: Cc1cc(-c2ncn3c(C(F)(F)F)cc(-c4ccc(Cl)c(C)c4)nc23)ccn1
The melting point of the first is lower: 194 to 196 °C for the first, 246 °C for the second.

Compared with `CCOC(=O)C1(C(=O)OCC)CCC2(c3cc(OC)c(OC)cc3CCN2C(=O)CCN(C)C)C(C2c3cc(OC)c(OC)cc3CCN2C(C)=O)C1` (stereo not drawn), `CN(C)c1ccc(C=NC2CCCCC2N=Cc2ccc(O)cc2O)c(O)c1` (stereo not drawn) is higher in melting point: 154 to 156 °C for the first, 202 °C for the second.

First: CCOCc1nc2c(N)nc(C)c(C)c2n1CCOCCCc1cncnc1
Second: O=C(NCc1ccc(Cl)cc1)c1cn(Cc2cccnc2)c2sc(CN3CCOCC3)cc2c1=O
The melting point of the first is lower: 127 to 129 °C for the first, 214 to 215 °C for the second.

First: CC1Cc2ccc(N3C(=O)C4=C(CCCC4)C3=O)cc2O1 (stereo not drawn)
Second: COc1nccc2c([N+](=O)[O-])c(C)ccc12
The melting point of the first is higher: 114 to 118 °C for the first, 94 °C for the second.
